Laboratory results as given in ChEMBL document CHEMBL1201862, “PubChem BioAssay data set” (2004).
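Where inhibition never reached the appropriate level, the endpoint shown equals the highest concentration tested. Otherwise, values were interpolated linearly from a five-concentration, 48-hour dose response in 96-well plates. Here, GI50 denotes the concentration required for 50% inhibition of growth.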 Active and inactive are the calls of the source. Rule as the data show it: active = GI50 up to about 1.1 µM and inactive = higher.

Key:
Assay in all cases: growth of human tumour cells (NCI), 48 h
[1] = test system: OVCAR-4
[2] = test system: Malme-3M
[3] = test system: OVCAR-5
[4] = test system: RXF 393
[5] = test system: DU-145
[6] = test system: MCF7
[7] = test system: M14
[8] = test system: A549
[9] = test system: MOLT-4
[10] = test system: COLO 205
[11] = test system: SK-OV-3
[12] = test system: ACHN
[13] = test system: RPMI-8226
[14] = test system: TK-10
[15] = test system: SF-295
[16] = test system: SF-539
[17] = test system: MDA-MB-435
[18] = test system: SK-MEL-28
[19] = test system: IGROV-1

Measured: GI50

Cc1ccc(/C=c2\c(=O)[nH]c3nc4ccccc4c(=O)n23)cc1
inactive: [1] > 100 µM | [2] 45.5 µM | [3] > 100 µM | [4] 29.6 µM | [5] 53 µM | [6] 39.8 µM | [7] 37.5 µM | [8] 94.4 µM | [9] 38.8 µM | [10] 18.3 µM | [11] > 100 µM | [12] > 100 µM | [13] 22.9 µM | [14] > 100 µM | [15] 73.1 µM | [16] 18.8 µM | [17] 24.9 µM | [18] 43.9 µM

Cc1cc2ccccc2n1CC(=O)NCC(C)C
inactive: [1] > 100 µM | [19] > 100 µM | [2] > 100 µM | [3] > 100 µM | [4] > 100 µM | [5] > 100 µM | [6] > 100 µM | [7] > 100 µM | [8] > 100 µM | [9] > 100 µM | [10] > 100 µM | [11] > 100 µM | [12] > 100 µM | [13] > 100 µM | [14] > 100 µM | [15] > 100 µM | [16] > 100 µM | [17] > 100 µM | [18] > 100 µM

CCOC(=O)C1(C(=O)OCC)C[C@H]2CON=C2[C@@H]1c1ccc(C(F)(F)F)cc1
inactive: [1] 17.7 µM | [19] 12.5 µM | [2] > 100 µM | [3] 72.6 µM | [4] 43.6 µM | [5] > 100 µM | [6] 35.9 µM | [7] 55.1 µM | [8] 75 µM | [9] 25.9 µM | [10] 26.2 µM | [11] 57.8 µM | [12] 19.1 µM | [13] 26.5 µM | [14] 67 µM | [15] 41.5 µM | [16] > 100 µM | [17] 38.6 µM | [18] > 100 µM

COC(=O)[C@]12CSC[C@H]1C[C@H](c1ccc(N(C)C)cc1)N2
inactive: [1] > 100 µM | [19] > 100 µM | [2] > 100 µM | [3] > 100 µM | [4] > 100 µM | [5] > 100 µM | [6] > 100 µM | [7] > 100 µM | [8] > 100 µM | [10] > 100 µM | [11] > 100 µM | [12] > 100 µM | [13] > 31.6 µM | [14] > 100 µM | [15] > 100 µM | [16] > 100 µM | [17] > 100 µM | [18] > 100 µM

Cc1ccc(-c2nc3cc(Cl)ccc3[nH]2)cc1
inactive: [1] > 100 µM | [19] > 100 µM | [2] > 100 µM | [4] > 100 µM | [5] > 100 µM | [6] > 100 µM | [7] > 100 µM | [8] 83.4 µM | [9] 32.4 µM | [10] 71.6 µM | [11] > 100 µM | [12] 97.5 µM | [13] 46.8 µM | [14] > 100 µM | [15] > 100 µM | [16] > 100 µM | [17] 54.1 µM | [18] > 100 µM

COC(=O)c1c2c(cc3c1CC1(Cc4ccc(C(C)=O)cc4C1)C3)CCC2 (stereo not given)
inactive: [1] 41.4 µM | [19] 87.5 µM | [2] 15.7 µM | [3] > 100 µM | [4] 20.2 µM | [5] 79.3 µM | [6] 37.3 µM | [8] 33.1 µM | [9] 21 µM | [10] 31.9 µM | [11] 63.2 µM | [12] 66.8 µM | [13] 24.7 µM | [14] > 100 µM | [15] 40.5 µM | [16] 85.3 µM | [17] 6.92 µM | [18] 63.5 µM

CC(=O)N(C(=O)CC(=O)N1N=C(c2ccccc2)C(/N=N/c2ccccc2[N+](=O)[O-])C1=O)c1ccc(Cl)cc1 (stereo not given)
inactive: [1] > 10 µM | [19] > 10 µM | [2] > 10 µM | [3] > 10 µM | [4] > 10 µM | [5] > 10 µM | [6] > 10 µM | [8] > 10 µM | [9] > 10 µM | [10] > 10 µM | [11] > 10 µM | [12] > 10 µM | [13] > 10 µM | [14] > 10 µM | [15] > 10 µM | [16] > 10 µM | [17] > 10 µM | [18] > 10 µM

Cc1coc2c1[C@@H](O)[C@@]1(C)[C@H](CCC[C@@H]1C)C2
inactive: [1] 58.7 µM | [19] 54.6 µM | [2] 30 µM | [3] 67 µM | [4] 18.2 µM | [5] 37 µM | [6] > 100 µM | [7] 18.2 µM | [9] 24.8 µM | [10] 22.6 µM | [11] 48.4 µM | [12] 33.8 µM | [13] 31.8 µM | [14] > 100 µM | [15] 45 µM | [16] 21.5 µM | [17] 15.1 µM | [18] 48.2 µM

O=C(NCCCNCCCNC(=O)c1cc(-c2ccccc2)nc2ccccc12)c1cc(-c2ccccc2)nc2ccccc12
inactive: [1] 1.74 µM | [19] 1.88 µM | [2] 2.13 µM | [3] 1.87 µM | [4] 1.77 µM | [5] 1.59 µM | [6] 1.66 µM | [7] 1.79 µM | [8] 1.83 µM | [10] 1.9 µM | [11] 2.21 µM | [12] 2.12 µM | [13] 1.72 µM | [14] 1.91 µM | [15] 1.88 µM | [16] 2.47 µM | [17] 1.64 µM | [18] 1.77 µM

CCOC(CN=C=S)OCC
inactive: [1] > 10 µM | [19] > 10 µM | [2] > 10 µM | [4] > 10 µM | [5] > 10 µM | [6] 9.27 µM | [7] > 10 µM | [8] > 10 µM | [9] > 10 µM | [10] > 10 µM | [11] > 10 µM | [12] > 10 µM | [13] 3.77 µM | [14] > 10 µM | [15] > 10 µM | [16] > 10 µM | [17] > 10 µM | [18] > 10 µM

O=C(O)C(Cc1c[nH]c2ccccc12)N1C(=O)c2ccccc2C1=O (stereo not given)
inactive: [1] > 100 µM | [19] 16.3 µM | [2] > 100 µM | [3] > 100 µM | [4] > 100 µM | [5] > 100 µM | [6] > 100 µM | [7] > 100 µM | [8] > 100 µM | [10] > 100 µM | [11] > 100 µM | [12] > 100 µM | [13] > 100 µM | [14] > 100 µM | [15] > 100 µM | [16] > 100 µM | [17] > 100 µM | [18] > 100 µM
